# Measured values taken from patent US11841369B2, “Method for improving quality of therapeutic cell through real-time glutathione measurement” (CELL2IN, INC., priority 2017, dated 2023).
# What was measured:
# [1] = tested on: hUC-MSCs; assay: FreSH-Tracer-based glutathione regeneration capacity (GRC) after diamide; set-up: species or system human; details: hUC-MSCs subcultured three times with AA2G 250 μg/mL, low concentration of diamide, vs naive cell group
# Experimental: In addition, GH is calculated as the coefficient of variation or robust coefficient of variation of cellular FR. GRC refers to a value obtained by real-time monitoring of FR after living cells are treated with an oxidizing agent, as calculated by dividing a value obtained by subtracting AUC of a group treated with 0.1-100 mM N-ethylmaleimide (NEM) from FR AUC of an oxidizing agent (diamide, H2O2, etc.)-treated group by a value obtained by subtracting the AUC of NEM-treated group from AUC of the untreated control, and multiplying the resulting value by 100. The FR of the NEM-treated group is a value for increasing the sensitivity of a GRC value by treating it as the blank value of the FR of the cells of interest. […] To remove the MitoFreSH-Tracer from the medium before measurement, the medium was exchanged with fresh 10 mM HEPES-containing HBSS, and a fluorescence image was obtained using a confocal imaging system, Operetta. By comparing GSH levels quantified from control cells not treated with RSL3 or control cells before treated with RSL3, the distribution of GSH expression-changed cells was calculated. Based on the point where the distribution histogram is divided into two peaks, the cells were divided into GSH^High cells (right peak) and GSH^Low cells (left peak), and then a ratio of corresponding cells was expressed as a percentage (%). […]
# [2] = tested on: hUC-MSCs; assay: CFU-F assay of hUC-MSCs; type: cell-based, human; details: 125 or 250 μg/mL AA2G, three days
# Experimental: The inventors observed an effect of the material on stem cells by treating each stem cells with a material for enhancing a glutathione evaluation parameter. When hUC-MSCs were subcultured in a L-AA2G-containing medium, CFU-F, migration capacity, and an anti-inflammatory effect were observed. A CFU-F assay (n=3) was performed by treating hUC-MSCs with 125 or 250 μg/mL of AA2G for three days. As shown in FIGS. 16A and 16B, it was confirmed that, when AA2G was treated, CFU-F increased. In addition, as hUC-MSCs were treated with 125 or 250 μg/mL of AA2G for three days, PDGF-AA-induced migration capacity (n=3) was analyzed. As shown in FIGS. 17A and 17B, it was confirmed that the migration capacity was increased by AA2G treatment. In addition, the reduction in T cell proliferation, a reduction in T cell differentiation, and the promotion of Treg cell differentiation were observed by treating hUC-MSCs with 125 or 250 μg/mL of AA2G for three days. […] Meanwhile, hUC-MSCs were cultured with a glutathione precursor such as γ-glutamyl cysteine (GGC, 0.1, 0.25, and 0.5 mM). A CFU-F assay (n=3) was performed by treating hUC-MSCs with each concentration of GGC for 2 hours. […] In addition, SDF1α and PDGF-AA-induced migration capacities (n=3) were analyzed for hUC-MSCs without treatment with GGC, and SDF1α- and PDGF-AA-induced migration abilities (n=3) were analyzed by treating hUC-MSCs with the increasing concentrations of GGC. STI571 was used as a PDGFR kinase inhibitor. As shown in FIGS. 20A to 20C, it was confirmed that, according to an increase in GGC treatment concentration, SDF1α- and PDGF-AA-induced migration capacities were enhanced. A CFU-F assay (n=3) was performed by treating hUC-MSCs with 0.2, 1, 2, and 4 μM ferrostatin-1 and 0.1, 0.5, 1, and 2 μM liproxstatin-1 for 24 hours.
smiles,measurement,setting,value
"O=C1O[C@H]([C@@H](O)CO)C(O)=C1O[C@H]1O[C@H](CO)[C@@H](O)[C@H](O)[C@H]1O [AA2G, ascorbic acid 2-glucoside]",FreSH-Tracer-based GRC,[1],increased
same,CFU-F,[2],increased
